The subject of data set [1] is IP3-induced Ca2+ signal in Jurkat T cells. Nature of the data set: Ca2+ signalling evoked by microinjection of IP3 in Jurkat T cells. Format: cell-based, human. The conditions noted are these: co-injection of BZ52 1 mM with IP3 4 μM. As to the method:
NAADP (final concentration 100 nM), IP3 (final concentration 4 μM), and BZ52 (final concentration 1 mM) were injected into single Jurkat T cells while [Ca^2+]i was analyzed by Ca^2+ imaging. Data are presented as mean±SEM (n=4 to 13).
The Jurkat T cells were loaded with fura-2/AM and kept in the dark at room temperature until use. Glass coverslips were coated first with BSA (5 mg/ml) and subsequently with poly-L-lysine (0.1 mg/ml). Small chamber slides consisting of a rubber O-ring were sealed on thin (0.1 mm) glass coverslips by silicon grease. Then, 60 μl buffer A containing 140 mM NaCl, 5 mM KCl, 1 mM MgSO4, 1 mM CaCl2, 1 mM NaH2PO4, 5.5 mM glucose, and 20 mM HEPES (pH 7.4), and 40 μl cell suspension (2*10^6 cells/ml) suspended in the same buffer were added into the small chamber and the coverslip was mounted on the stage of a fluorescence microscope (Leica DM IRE2).
Ratiometric Ca^2+ imaging was performed as described earlier. In brief, we used an Improvision imaging system (Heidelberg, Germany) built around the Leica microscope at 100-fold magnification. Illumination at 340 and 380 nm was carried out using a monochromator system (Polychromator IV, TILL Photonics, Graefelfing, Germany). Images were taken with a gray-scale CCD camera (type C4742-95-12ER; Hamamatsu, Enfield, United Kingdom; operated in 8-bit mode). […]

The nature of another data set: Solubility. Format: physicochemical. The conditions noted are these: excluded intravenous application.

These results are taken from patent US20070105810A1, “THERAPEUTICS” (priority 2003, published 2007).

Consider `CCCCN(CCCC)C(=O)C[n+]1cccc(C(=O)O)c1` [BZ52, 3-Carboxy-1-dibutylcarbamoylmethyl-pyridinium], for which the “IP3-induced Ca2+ signal” value in data set [1] was “no difference”.

In the case of `CCCCCCCCNC(=O)C[n+]1cccc(C(=O)O)c1.[Br-]` [BZ194, 3-Carboxy-1-Octylcarbamoylmethyl-Pyridinium], in “Solubility”, the solubility entry is “Limited”.
